PubChem BioAssay AID1919014 (Molecular Pharmacology Branch, DTP, NCI, 2023)

Tested on: NCI-H1341 complex spheroids, percent test/control
Test: Anticancer human tumor NCI-H1341 cell line growth inhibition [AhR];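 also: spheroids exposed to agents for seven days before readout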
Settings: for IC50: curve of first compound; for viability, T/C: stronger effect = lower value; active = viability on the fitted dose curve at most 10% of control; inactive = the rest
Procedure, shortened: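 Spheroids combined tumor cells with HUVEC endothelial cells and human MSCs as stroma. AhR antagonists were paired with standard or investigational drugs, each dosed in half-log steps down from near clinical Cmax, or from 10 microM where Cmax was unknown.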

[1] = second compound 0.1 µM, first compound 0.000949 µM
[2] = second compound 0.1 µM, first compound 0.003 µM
[3] = second compound 0.1 µM, first compound 0.00949 µM
[4] = second compound 0.1 µM, first compound 0.03 µM
[5] = second compound 0.1 µM, first compound 0.0949 µM
[6] = second compound 0.1 µM, first compound 0.3 µM
[7] = second compound 0.316 µM, first compound 0.000949 µM
[8] = second compound 0.316 µM, first compound 0.003 µM
[9] = second compound 0.316 µM, first compound 0.00949 µM
[10] = second compound 0.316 µM, first compound 0.03 µM
[11] = second compound 0.316 µM, first compound 0.0949 µM
[12] = second compound 0.316 µM, first compound 0.3 µM
[13] = second compound 1 µM, first compound 0.000949 µM
[14] = second compound 1 µM, first compound 0.003 µM
[15] = second compound 1 µM, first compound 0.00949 µM
[16] = second compound 1 µM, first compound 0.03 µM
[17] = second compound 1 µM, first compound 0.0949 µM
[18] = second compound 1 µM, first compound 0.3 µM
[19] = second compound 3.16 µM, first compound 0.000949 µM
[20] = second compound 3.16 µM, first compound 0.003 µM
[21] = second compound 3.16 µM, first compound 0.00949 µM
[22] = second compound 3.16 µM, first compound 0.03 µM
[23] = second compound 3.16 µM, first compound 0.0949 µM
[24] = second compound 3.16 µM, first compound 0.3 µM
[25] = second compound 10 µM, first compound 0.000949 µM
[26] = second compound 10 µM, first compound 0.003 µM
[27] = second compound 10 µM, first compound 0.00949 µM
[28] = second compound 10 µM, first compound 0.03 µM
[29] = second compound 10 µM, first compound 0.0949 µM
[30] = second compound 10 µM, first compound 0.3 µM

CC(C)CC(NC(=O)C(Cc1ccccc1)NC(=O)c1cnccn1)B(O)O (stereo not given) + Cc1cncc(-c2nc(NCCc3c[nH]c4ccccc34)c3ncn(C(C)C)c3n2)c1
< 0.949 nM: IC50 (second compound 10 µM)
4 nM: IC50 (second compound 1 µM)
inactive: viability, T/C [1] 98.4% | viability, T/C [2] 89.7% | viability, T/C [7] 80.5% | viability, T/C [8] 83.1% | viability, T/C [13] 83.4% | viability, T/C [14] 65.8% | viability, T/C [19] 56.4% | viability, T/C [20] 66.4% | viability, T/C [25] 28% | viability, T/C [26] 58.4%
active: viability, T/C [3] 3.87% | viability, T/C [4] 0.1% | viability, T/C [5] 0.05% | viability, T/C [6] 0.16% | viability, T/C [9] 2.53% | viability, T/C [10] 0.14% | viability, T/C [11] 0.06% | viability, T/C [12] 0.12% | viability, T/C [15] 2.45% | viability, T/C [16] 0.11% | viability, T/C [17] 0.05% | viability, T/C [18] 0.5% | viability, T/C [21] 1.23% | viability, T/C [22] 0.06% | viability, T/C [23] 0.08% | viability, T/C [24] 0.14% | viability, T/C [27] 0.22% | viability, T/C [28] 0.14% | viability, T/C [29] 0.15% | viability, T/C [30] 0.17%
5.11 nM: IC50 (second compound 0.1 µM)
3.73 nM: IC50 (second compound 3.16 µM)
4.76 nM: IC50 (second compound 0.316 µM)

CCc1c2c(nc3ccc(O)cc13)-c1cc3c(c(=O)n1C2)COC(=O)[C@]3(O)CC + Cc1cncc(-c2nc(NCCc3c[nH]c4ccccc34)c3ncn(C(C)C)c3n2)c1
active: viability, T/C [18] 8.02% | viability, T/C [24] 5.83% | viability, T/C [28] 8.23% | viability, T/C [29] 4.28% | viability, T/C [30] 1.78%
inactive: viability, T/C [1] 69.6% | viability, T/C [2] 65.8% | viability, T/C [3] 41.9% | viability, T/C [4] 31.9% | viability, T/C [5] 25.2% | viability, T/C [6] 11.9% | viability, T/C [7] 63.2% | viability, T/C [8] 55.8% | viability, T/C [9] 33.8% | viability, T/C [10] 31.8% | viability, T/C [11] 22.9% | viability, T/C [12] 10% | viability, T/C [13] 46.1% | viability, T/C [14] 45.6% | viability, T/C [15] 36.4% | viability, T/C [16] 31.7% | viability, T/C [17] 20.4% | viability, T/C [19] 46% | viability, T/C [20] 38.2% | viability, T/C [21] 34.6% | viability, T/C [22] 26.3% | viability, T/C [23] 15.2% | viability, T/C [25] 15.2% | viability, T/C [26] 13% | viability, T/C [27] 14.9%
7.13 nM: IC50 (second compound 0.1 µM)
< 0.949 nM: IC50 (second compound 1 µM) | IC50 (second compound 3.16 µM) | IC50 (second compound 10 µM)
3.57 nM: IC50 (second compound 0.316 µM)

COc1cc(Nc2ncc3c(n2)-c2ccc(Cl)cc2C(c2c(F)cccc2OC)=NC3)ccc1C(=O)O + Cc1cncc(-c2nc(NCCc3c[nH]c4ccccc34)c3ncn(C(C)C)c3n2)c1
inactive: viability, T/C (second compound 0.1 µM, first compound 0.0316 µM) 38.2% | viability, T/C (second compound 0.1 µM, first compound 0.1 µM) 42.3% | viability, T/C (second compound 0.1 µM, first compound 0.316 µM) 38.9% | viability, T/C (second compound 0.1 µM, first compound 1 µM) 31.2% | viability, T/C (second compound 0.1 µM, first compound 3.16 µM) 24.2% | viability, T/C (second compound 0.1 µM, first compound 10 µM) 21% | viability, T/C (second compound 0.316 µM, first compound 0.0316 µM) 37.1% | viability, T/C (second compound 0.316 µM, first compound 0.1 µM) 37.1% | viability, T/C (second compound 0.316 µM, first compound 0.316 µM) 34.9% | viability, T/C (second compound 0.316 µM, first compound 1 µM) 23.9% | viability, T/C (second compound 0.316 µM, first compound 3.16 µM) 26.9% | viability, T/C (second compound 0.316 µM, first compound 10 µM) 22.3% | viability, T/C (second compound 1 µM, first compound 0.0316 µM) 36.1% | viability, T/C (second compound 1 µM, first compound 0.1 µM) 39.9% | viability, T/C (second compound 1 µM, first compound 0.316 µM) 34.3% | viability, T/C (second compound 1 µM, first compound 1 µM) 30.1% | viability, T/C (second compound 1 µM, first compound 3.16 µM) 25.8% | viability, T/C (second compound 1 µM, first compound 10 µM) 20.5% | viability, T/C (second compound 3.16 µM, first compound 0.0316 µM) 42.2% | viability, T/C (second compound 3.16 µM, first compound 0.1 µM) 37.7% | viability, T/C (second compound 3.16 µM, first compound 0.316 µM) 40.2% | viability, T/C (second compound 3.16 µM, first compound 1 µM) 37.5% | viability, T/C (second compound 3.16 µM, first compound 3.16 µM) 27.5% | viability, T/C (second compound 3.16 µM, first compound 10 µM) 24% | viability, T/C (second compound 10 µM, first compound 0.0316 µM) 25.4% | viability, T/C (second compound 10 µM, first compound 0.1 µM) 30.3% | viability, T/C (second compound 10 µM, first compound 0.316 µM) 29.8% | viability, T/C (second compound 10 µM, first compound 1 µM) 24.2% | viability, T/C (second compound 10 µM, first compound 3.16 µM) 21.2% | viability, T/C (second compound 10 µM, first compound 10 µM) 19.4%
< 31.6 nM: IC50 (second compound 0.1 µM) | IC50 (second compound 0.316 µM) | IC50 (second compound 1 µM) | IC50 (second compound 3.16 µM) | IC50 (second compound 10 µM)
